Results on five compounds are retold here after patent US11420984B2, “Arginase inhibitors and methods of use thereof” (AstraZeneca AB, priority 2018, dated 2022).

A short description of data set [1]: Bioavailability / pharmacokinetic study in male rats (IV and PO). In kind it is in vivo. The note with it: Example 7 when dosed as payload, male rat.
Assay in data set [2]: as above
In kind it is in vivo, rat. The following applies: plasma; for Vd: read-out: Vdss; for AUC / Cmax / Tmax: PO 5 mg/kg; for bioavailability: PO 5 mg/kg vs IV 2 mg/kg. The procedure:
Example 8 was formulated in 0.9% w/v saline pH 4 (adjusted with 1M HCl) for IV dosing. The formulation was dosed at 2 mg/kg by femoral catheter to two male rats each (170-250 g). Jugular vein catheter serial blood samples were taken at 0.033, 0.083, 0.167, 0.5, 1, 2, 4, 8, and 24 hrs post-dose. For PO dosing, Example 8 was formulated in deionized water pH 4 (adjusted with 1M HCl) and dosed at 5 mg/kg by oral gavage to two male rats each (170-250 g). Serial blood samples were taken by jugular vein catheter at 0.25, 0.5, 1, 1.5, 2, 3, 4, 8, and 24 hrs post dose. Plasma samples were generated from blood using low speed centrifugation. […] The samples and standards were extracted by precipitation with two volumes of acetonitrile followed by centrifugation. […] Where appropriate, measured and not nominal doses were used to calculate bioavalability.

Data set [3] has as its target Human Arginase 1 (Homo sapiens (Human), UniProt P05089). The data set can be described thus: Human Arginase 1 enzyme inhibition (thioarginine/DTNB absorbance assay). In kind it is biochemical. The following applies: recombinant enzyme 5 nM, 0.5 mM thioarginine premix, 60 min. The procedure:
(§1) The thiol group was detected with Ellman's reagent, 5,5′-dithiobis(2-nitrobenzoic acid) (DTNB). DTNB reacts with the thiol to give the mixed disulfide and 2-nitro-5-thiobenzoic acid (TNB) which is quantified by the absorbance of the anion (TNB^2−) at 412 nm.
(§2) The assays were run in clear 384 well plates (Greiner cat no: 781101). […] Two pre-mixes were prepared from reagents thawed immediately before addition to assay plates. Pre-mix one comprised human Arginase 1 or human Arginase 2, at a final concentration of 5 nM and 0.5 mM DTNB in assay buffer, 45 mM HEPES pH7.5, brij 35, 0.045% (w/v) and 100 μM MnCl2. Pre-mix two comprised freshly thawed 0.5 mM thioarginine in assay buffer.
(§3) Assay plates were centrifuged prior to reading absorbance at 412 nm in a Pherastar multi-mode plate reader to collect data at time point 0 (T0). The plates were incubated at room temperature for 60 min prior to reading again to collect data at time point 1 (T1). Data is derived by subtracting the A412 signal measured at T0 (time point 0) from that measured at T1 (time point 1). The data was transformed to % effect using the equation: Compound % effect=100*[(X−min)/(max−min)], where X represents the normalized value for the compound based on the Min (vehicle) and Max (reference compound) inhibition control.

In data set [4] the target is Human Arginase 2 (Homo sapiens (Human), UniProt P78540). As to the kind of experiment: Human Arginase 2 enzyme inhibition (thioarginine/DTNB absorbance assay). In kind it is biochemical. The note with it: recombinant enzyme 5 nM, 0.5 mM thioarginine premix, 60 min. The procedure:
as §1, §2, §3

The nature of data set [5]: Interconversion of Compound B to Compound A observed by NMR. It is filed as physicochemical. The text has this:
Compound B (Example 19) was obtained by the intramolecular cyclization of Example 9 (Compound A) via an interconversion process. Furthermore, interconversions between Compound A (Example 9) and Compound B were observed under various conditions. For example, Compound B was converted to Compound A in the presence of water and such conversion was proportional to the concentration of water in the solvent. […] In d6-DMSO, compound B predominates, while there is a proportional increase in compound A with increase in D2O concentration. The proportion of compound A relative to compound B in 100% D2O reaches approximately 90%. Furthermore, Compound B was converted to Compound A under acidic condition.

[6] abbreviates: pro-drug itself, observed when dosed as pro-drug, male rat, IV 2 mg/kg.
[7] abbreviates: pro-drug itself, observed when dosed as pro-drug, male rat.

Read-outs that look alike come from different tables or passages of the source. Marks after values point to notes of the source that are not given here.

Sequence of Human Arginase 1 (P05089 whole entry): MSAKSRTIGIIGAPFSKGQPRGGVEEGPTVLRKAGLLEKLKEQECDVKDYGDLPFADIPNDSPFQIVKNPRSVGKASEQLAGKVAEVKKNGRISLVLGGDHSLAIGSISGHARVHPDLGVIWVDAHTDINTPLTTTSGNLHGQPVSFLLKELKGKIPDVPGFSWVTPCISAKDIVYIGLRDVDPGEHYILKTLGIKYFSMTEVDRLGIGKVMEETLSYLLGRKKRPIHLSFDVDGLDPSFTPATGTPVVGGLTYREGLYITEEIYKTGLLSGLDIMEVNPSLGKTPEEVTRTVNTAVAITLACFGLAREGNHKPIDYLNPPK
Sequence of Human Arginase 2 (P78540 23-354): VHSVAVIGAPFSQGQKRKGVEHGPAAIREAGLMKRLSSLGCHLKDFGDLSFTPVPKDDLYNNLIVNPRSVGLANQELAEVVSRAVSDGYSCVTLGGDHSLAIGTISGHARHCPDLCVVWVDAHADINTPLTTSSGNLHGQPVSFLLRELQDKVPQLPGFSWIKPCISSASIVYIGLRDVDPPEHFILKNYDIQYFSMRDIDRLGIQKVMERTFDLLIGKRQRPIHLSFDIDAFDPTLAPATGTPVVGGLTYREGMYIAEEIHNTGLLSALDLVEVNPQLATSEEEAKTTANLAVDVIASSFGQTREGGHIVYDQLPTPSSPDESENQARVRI

With `N[C@H]1CN[C@@](CCCCB(O)O)(C(=O)O)C1` [Example 7, (2R,4R)-4-amino-2-(4-boronobutyl)pyrrolidine-2-carboxylic acid], in data set [1], the “Cl (mL/min/kg)” value is recorded as 8.90 * mL/min/kg and the “Vdss (L/kg)” value is 0.26 * L/kg. Further, in data set [2] (male, rat, iv), the clearance was 8.9 mL/min/kg and the Vd was found to be 0.26 L/kg.

The term IC50 denotes the midpoint of a concentration-inhibition curve. As usually defined, the AUC is the area under the concentration-time curve, a measure of exposure. Low readings indicate less exposure, high ones more exposure. In general, Cmax refers to the peak of the concentration-time curve. As usually defined, the Tmax is the time at which the peak concentration occurs. One may read the bioavailability as the share of a dose that reaches the circulation, judged against a reference dose that is usually intravenous. A low value points to poor availability. `N[C@@H](CO)C(=O)N[C@H]1CN[C@@](CCCCB(O)O)(C(=O)O)C1` [Example 17, (2R,4R)-4-((S)-2-amino-3-hydroxypropanamido)-2-(4-boronobutyl)pyrrolidine-2-carboxylic acid]: the IC50 in data set [3] amounted to 200 nM. In addition, in data set [2] (setting [6]), the clearance stood at 40.5 mL/min/kg and the Vd was 0.36 L/kg. Moreover, in data set [2] (setting [7]), the AUC is 0.38 µM·h, the highest level (Cmax) was 430 nM, the Tmax was found to be 22.8 min and the bioavailability was 5.8%. In addition, the IC50 in data set [4] is 230 nM.

Take `COC[C@H](N)C(=O)N[C@H]1CN[C@@](CCCCB(O)O)(C(=O)O)C1` [Example 18, (2R,4R)-4-((S)-2-amino-3-methoxypropanamido)-2-(4-boronobutyl)pyrrolidine-2-carboxylic acid]: the IC50 in data set [3] worked out at 320 nM. In data set [2] (setting [6]), the clearance is 317 mL/min/kg and the Vd was 0.64 L/kg. Moreover, the IC50 in data set [4] was found to be 380 nM.

For the compound `CC(C)[C@H](N)C(=O)N[C@H]1CN[C@]2(CCCCB(O)OC2=O)C1` [Example 19, (S)-2-amino-N-((3R,5R)-8-hydroxy-6-oxo-7-oxa-1-aza-8-boraspiro[4.7]dodecan-3-v1)-3-methylbutanamide], the “conversion to compound A under acidic condition” value in data set [5] (compound B in 0.1 M DCl in D2O) is given as “almost complete conversion to compound A”. In addition, the “proportion of compound A relative to compound B” value in data set [5] (compound B in 100% D2O) is listed as “approximately 90%”. Besides, the IC50 in data set [3] was 220 nM. Further, in data set [2] (setting [6]), the clearance was determined as 36.8 mL/min/kg and the Vd came out at 0.2 L/kg. Moreover, in data set [2] (setting [7]), the AUC turned out to be 0.21 µM·h, the maximum concentration (Cmax) worked out at 330 nM, the Tmax turned out to be 15 min and the bioavailability is 2.5%. Also, in data set [4], the IC50 came out at 280 nM.

As to `CC(C)(O)[C@H](N)C(=O)N[C@H]1CN[C@@](CCCCB(O)O)(C(=O)O)C1` [Example 20, (2R,4R)-4-[[(2S)-2-amino-3-hydroxy-3-methyl-butanoyl]amino]-2-(4-boronobutyl)pyrrolidine-2-carboxylic acid], in data set [3], the IC50 was 340 nM. Further, in data set [2] (setting [6]), the clearance worked out at 8.9 mL/min/kg and the Vd amounted to 0.29 L/kg. Further, in data set [2] (setting [7]), the AUC stood at 6.9 µM·h, the highest concentration (Cmax) came out at 1800 nM, the Tmax was 60 min and the bioavailability came to 25.5%. In addition, in data set [4], the IC50 came to 520 nM.
